pIC50, pKi: −log10 of the molar value. “And” between values parts separate entries of the source, which are not always exact repeats. Equal entries are not always repeated. “Also recorded” adds a separate entry of the source. Where a SMILES comes first, the peptide text is derived from it. Bridges are numbered along the chain shown (N, C = ends).
Columns and labels:
[1] = biological target: Mouse CNS α-MII Site (putative α6β2* nAChRs); assay type: binding
α2β2 nAChR = biological target: T1, α2β2 nAChR (Rattus norvegicus, UniProt P12389+P12390); test: cell-based; assay type: cell-based
T1 construct: expressed in transfected cells; host or cells: Xenopus laevis oocytes, cRNA injected

α6/α3β4 nAChR = biological target: T2, α6/α3β4 nAChR (Rattus norvegicus, UniProt P04757+P12392+P43143); test: cell-based
T2 construct: amino acids 1 to 237 of the rat α6 subunit protein; amino acids 233 to 499 of the rat α3 subunit protein; expressed in transfected cells; host or cells: Xenopus laevis oocytes, cRNA injected

α2β4 nAChR = biological target: T3, α2β4 nAChR (Rattus norvegicus, UniProt P12389+P12392); test: cell-based; assay type: cell-based
T3 construct: expressed in transfected cells; host or cells: Xenopus laevis oocytes, cRNA injected

α4β4 nAChR = biological target: T4, α4β4 nAChR (Rattus norvegicus, UniProt P09483+P12392); test: cell-based; assay type: cell-based
T4 construct: expressed in transfected cells; host or cells: Xenopus laevis oocytes, cRNA injected

α6/α3β2 nAChR = biological target: T5, α6/α3β2 nAChR (Rattus norvegicus, UniProt P04757+P12390+P43143); test: cell-based
T5 construct: amino acids 1 to 237 of the rat α6 subunit protein; amino acids 233 to 499 of the rat α3 subunit protein; expressed in transfected cells; host or cells: Xenopus laevis oocytes, cRNA injected

Rat α6/α3β2β3 nAChR = biological target: T6, Rat α6/α3β2β3 nAChR (Rattus norvegicus, UniProt P04757+P12390+P43143); test: cell-based; assay type: cell-based
T6 construct: amino acids 1 to 237 of the rat α6 subunit protein; amino acids 233 to 499 of the rat α3 subunit protein; expressed in transfected cells; host or cells: Xenopus laevis oocytes, cRNA injected (pT7TS/rα6α3 for the chimera)

Rat α3β2 nAChR = biological target: T7, Rat α3β2 nAChR (Rattus norvegicus, UniProt P04757+P12390); test: cell-based; assay type: cell-based
T7 construct: expressed in transfected cells; host or cells: Xenopus laevis oocytes, cRNA injected

rat α3β4 nAChR = biological target: T8, rat α3β4 nAChR (Rattus norvegicus, UniProt P04757+P12392); test: cell-based; assay type: cell-based
T8 construct: expressed in transfected cells; host or cells: Xenopus laevis oocytes, cRNA injected

α7 nAChR = biological target: T9, α7 nAChR (Rattus norvegicus, UniProt Q05941); test: cell-based; assay type: cell-based
T9 construct: expressed in transfected cells; host or cells: Xenopus laevis oocytes, cRNA injected

rat α6β4 nAChR = biological target: T10, rat α6β4 nAChR (Rattus norvegicus, UniProt P12392+P43143); assay type: cell-based
T10 construct: expressed in transfected cells; host or cells: Xenopus laevis oocytes, cRNA injected (50 ng each)

α4β2 nAChR = biological target: T11, α4β2 nAChR (Rattus norvegicus, UniProt P09483+P12390); assay type: cell-based
T11 construct: expressed in transfected cells; host or cells: Xenopus laevis oocytes, cRNA injected
T11 sequence (P09483 31-630 limits assumed): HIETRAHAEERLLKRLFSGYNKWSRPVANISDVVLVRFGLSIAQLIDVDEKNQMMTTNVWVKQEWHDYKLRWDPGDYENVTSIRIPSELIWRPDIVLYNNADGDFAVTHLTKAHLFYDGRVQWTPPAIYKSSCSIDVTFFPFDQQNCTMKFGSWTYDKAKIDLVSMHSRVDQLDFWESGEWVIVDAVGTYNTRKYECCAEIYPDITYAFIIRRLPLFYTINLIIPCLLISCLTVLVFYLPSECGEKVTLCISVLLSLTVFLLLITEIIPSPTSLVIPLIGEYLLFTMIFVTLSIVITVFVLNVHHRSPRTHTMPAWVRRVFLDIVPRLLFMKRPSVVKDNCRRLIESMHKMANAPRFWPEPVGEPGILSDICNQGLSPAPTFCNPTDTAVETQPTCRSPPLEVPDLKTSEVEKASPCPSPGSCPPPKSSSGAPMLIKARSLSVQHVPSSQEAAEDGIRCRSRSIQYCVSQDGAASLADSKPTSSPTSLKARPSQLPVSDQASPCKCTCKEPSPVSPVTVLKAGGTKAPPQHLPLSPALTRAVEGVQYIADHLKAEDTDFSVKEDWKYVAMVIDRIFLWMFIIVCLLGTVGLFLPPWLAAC
T11 sequence (P12390 25-500 limits assumed): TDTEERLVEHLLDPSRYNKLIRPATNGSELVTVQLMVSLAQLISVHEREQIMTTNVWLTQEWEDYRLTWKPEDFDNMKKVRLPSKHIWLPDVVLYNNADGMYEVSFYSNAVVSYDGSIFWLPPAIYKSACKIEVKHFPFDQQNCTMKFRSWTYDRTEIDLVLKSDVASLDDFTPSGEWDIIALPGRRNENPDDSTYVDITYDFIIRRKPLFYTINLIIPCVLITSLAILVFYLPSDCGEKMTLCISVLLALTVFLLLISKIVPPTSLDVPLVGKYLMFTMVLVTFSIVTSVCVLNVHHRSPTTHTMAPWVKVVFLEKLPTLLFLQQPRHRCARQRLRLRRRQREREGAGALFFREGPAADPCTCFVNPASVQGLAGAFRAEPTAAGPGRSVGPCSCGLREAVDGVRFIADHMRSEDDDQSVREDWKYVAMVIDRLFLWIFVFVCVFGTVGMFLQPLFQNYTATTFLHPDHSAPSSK

T9 sequence (Q05941 23-502 limits assumed): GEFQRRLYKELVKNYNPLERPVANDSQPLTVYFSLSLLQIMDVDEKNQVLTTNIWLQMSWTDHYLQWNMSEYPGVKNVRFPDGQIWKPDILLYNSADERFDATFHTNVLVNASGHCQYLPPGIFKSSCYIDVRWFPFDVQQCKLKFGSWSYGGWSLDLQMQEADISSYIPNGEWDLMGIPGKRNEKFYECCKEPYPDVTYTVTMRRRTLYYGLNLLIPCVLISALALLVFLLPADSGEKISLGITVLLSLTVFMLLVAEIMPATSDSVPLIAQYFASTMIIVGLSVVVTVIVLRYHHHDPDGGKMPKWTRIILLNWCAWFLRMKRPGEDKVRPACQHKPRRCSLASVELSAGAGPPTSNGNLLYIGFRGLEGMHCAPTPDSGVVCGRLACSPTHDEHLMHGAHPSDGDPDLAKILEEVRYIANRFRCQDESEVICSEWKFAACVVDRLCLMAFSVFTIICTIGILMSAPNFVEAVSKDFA
T4 sequence (P09483 31-630 limits assumed): as the sequence (P09483 31-630 limits assumed) above
T4 sequence (P12392 21-495 limits assumed): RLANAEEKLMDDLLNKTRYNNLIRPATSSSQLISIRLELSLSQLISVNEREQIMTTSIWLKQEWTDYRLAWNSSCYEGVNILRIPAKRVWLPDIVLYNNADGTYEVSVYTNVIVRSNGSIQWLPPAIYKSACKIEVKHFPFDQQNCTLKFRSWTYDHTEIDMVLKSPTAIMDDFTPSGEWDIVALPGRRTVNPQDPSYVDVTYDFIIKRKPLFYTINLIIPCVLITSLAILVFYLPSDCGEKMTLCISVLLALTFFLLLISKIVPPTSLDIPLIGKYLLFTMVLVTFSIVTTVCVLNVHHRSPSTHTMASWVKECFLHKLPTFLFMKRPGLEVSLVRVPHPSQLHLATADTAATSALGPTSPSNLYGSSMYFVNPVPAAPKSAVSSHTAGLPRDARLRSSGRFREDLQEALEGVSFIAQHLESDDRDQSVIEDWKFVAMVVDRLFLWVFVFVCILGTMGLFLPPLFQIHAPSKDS
T8 sequence (P04757 26-499 limits assumed): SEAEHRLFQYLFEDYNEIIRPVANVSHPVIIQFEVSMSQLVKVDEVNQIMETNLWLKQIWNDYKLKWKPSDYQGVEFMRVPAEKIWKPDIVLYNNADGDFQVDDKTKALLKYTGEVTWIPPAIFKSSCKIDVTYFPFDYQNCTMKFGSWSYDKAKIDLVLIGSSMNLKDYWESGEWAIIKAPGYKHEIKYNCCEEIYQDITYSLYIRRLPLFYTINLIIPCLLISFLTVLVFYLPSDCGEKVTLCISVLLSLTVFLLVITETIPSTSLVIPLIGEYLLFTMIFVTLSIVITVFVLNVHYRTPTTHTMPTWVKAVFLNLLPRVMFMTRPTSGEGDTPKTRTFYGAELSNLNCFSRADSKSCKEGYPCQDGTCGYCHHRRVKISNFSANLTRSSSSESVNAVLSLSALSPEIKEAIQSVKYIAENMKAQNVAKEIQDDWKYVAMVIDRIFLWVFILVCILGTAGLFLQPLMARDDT
T8 sequence (P12392 21-495 limits assumed): as the sequence (P12392 21-495 limits assumed) above
T7 sequence (P04757 26-499 limits assumed): as the sequence (P04757 26-499 limits assumed) above
T7 sequence (P12390 25-500 limits assumed): as the sequence (P12390 25-500 limits assumed) above
T1 sequence (P12389 28-511 limits assumed): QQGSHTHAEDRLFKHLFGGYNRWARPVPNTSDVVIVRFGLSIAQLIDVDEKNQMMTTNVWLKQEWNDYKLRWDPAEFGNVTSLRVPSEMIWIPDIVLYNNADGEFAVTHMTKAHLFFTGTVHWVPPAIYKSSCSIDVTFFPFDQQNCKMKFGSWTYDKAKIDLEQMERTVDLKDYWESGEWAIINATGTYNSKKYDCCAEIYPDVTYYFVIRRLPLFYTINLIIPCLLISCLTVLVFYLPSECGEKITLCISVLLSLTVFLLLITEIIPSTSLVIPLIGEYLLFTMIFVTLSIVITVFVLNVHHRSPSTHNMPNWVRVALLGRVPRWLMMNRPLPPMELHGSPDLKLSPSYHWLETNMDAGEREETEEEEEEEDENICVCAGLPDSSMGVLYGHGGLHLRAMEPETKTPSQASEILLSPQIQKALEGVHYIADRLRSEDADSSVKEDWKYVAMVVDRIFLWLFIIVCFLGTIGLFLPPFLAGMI
T1 sequence (P12390 25-500 limits assumed): as the sequence (P12390 25-500 limits assumed) above
T3 sequence (P12389 28-511 limits assumed): as the sequence (P12389 28-511 limits assumed) above
T3 sequence (P12392 21-495 limits assumed): as the sequence (P12392 21-495 limits assumed) above
T5 sequence (P43143 31-237 limits assumed): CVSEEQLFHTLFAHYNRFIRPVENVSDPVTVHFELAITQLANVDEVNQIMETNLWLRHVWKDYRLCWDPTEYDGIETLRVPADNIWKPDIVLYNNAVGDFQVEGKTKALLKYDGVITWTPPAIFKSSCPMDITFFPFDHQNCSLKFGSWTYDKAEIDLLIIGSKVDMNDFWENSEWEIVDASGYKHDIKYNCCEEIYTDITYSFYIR
T5 sequence (P04757 233-499 limits assumed): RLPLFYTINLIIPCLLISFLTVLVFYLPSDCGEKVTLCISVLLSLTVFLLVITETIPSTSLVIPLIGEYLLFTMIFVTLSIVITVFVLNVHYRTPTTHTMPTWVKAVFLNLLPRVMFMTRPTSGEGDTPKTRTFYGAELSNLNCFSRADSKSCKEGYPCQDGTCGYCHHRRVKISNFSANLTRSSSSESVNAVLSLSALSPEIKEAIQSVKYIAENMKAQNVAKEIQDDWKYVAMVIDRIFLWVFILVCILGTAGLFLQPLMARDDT
T5 sequence (P12390 25-500 limits assumed): as the sequence (P12390 25-500 limits assumed) above
T6 sequence (P43143 31-237 limits assumed): as the sequence (P43143 31-237 limits assumed) above
T6 sequence (P04757 233-499 limits assumed): as the sequence (P04757 233-499 limits assumed) above
T6 sequence (P12390 25-500 limits assumed): as the sequence (P12390 25-500 limits assumed) above
T2 sequence (P43143 31-237 limits assumed): as the sequence (P43143 31-237 limits assumed) above
T2 sequence (P04757 233-499 limits assumed): as the sequence (P04757 233-499 limits assumed) above
T2 sequence (P12392 21-495): as the sequence (P12392 21-495 limits assumed) above
T10 sequence (P43143 31-493): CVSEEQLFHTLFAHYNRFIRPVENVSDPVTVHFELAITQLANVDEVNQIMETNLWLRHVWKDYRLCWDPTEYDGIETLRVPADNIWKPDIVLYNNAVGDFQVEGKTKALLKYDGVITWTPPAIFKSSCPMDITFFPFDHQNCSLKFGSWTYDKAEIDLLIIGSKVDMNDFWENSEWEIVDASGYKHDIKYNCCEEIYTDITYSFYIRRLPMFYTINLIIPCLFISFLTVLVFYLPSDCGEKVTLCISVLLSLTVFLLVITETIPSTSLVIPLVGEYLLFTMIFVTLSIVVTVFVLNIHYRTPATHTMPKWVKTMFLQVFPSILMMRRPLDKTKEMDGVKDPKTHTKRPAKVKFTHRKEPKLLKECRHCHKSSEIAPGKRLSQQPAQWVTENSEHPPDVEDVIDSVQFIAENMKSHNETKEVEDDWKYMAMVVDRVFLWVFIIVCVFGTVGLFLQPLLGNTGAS
T10 sequence (P12392 21-495): as the sequence (P12392 21-495 limits assumed) above

Structure (SMILES): CC(C)C[C@@H]1NC(=O)[C@H](Cc2c[nH]cn2)NC(=O)[C@@H]2CSSC[C@H](NC(=O)CN)C(=O)N[C@@H](CSSC[C@@H](C(N)=O)NC(=O)[C@H](CC(C)C)NC(=O)[C@H](CC(N)=O)NC(=O)[C@H](CO)NC(=O)[C@H](Cc3c[nH]cn3)NC(=O)[C@H](C)NC1=O)C(=O)N[C@@H](CO)C(=O)N[C@@H](CC(N)=O)C(=O)N1CCC[C@H]1C(=O)N[C@@H](C(C)C)C(=O)N2 [MII[E11A]] (H-GCCSNPVCHLAHSNLC-NH2; disulfide 2-8, 3-16)
- pKi [1]: 9.57
- pIC50 (α2β2 nAChR): < 5.00
- Ratio nAChR subtype IC50/α6/α3β2β3 IC50, α2β2 (α2β2 nAChR): >62,500
- pIC50 (α6/α3β4 nAChR): 8.19
- Ratio nAChR subtype IC50/α6/α3β2β3 IC50, α6/α3β4 (α6/α3β4 nAChR): 40.3
- pIC50 (α2β4 nAChR): < 5.00
- Ratio nAChR subtype IC50/α6/α3β2β3 IC50, α2β4 (α2β4 nAChR): >62,500
- pIC50 (α4β4 nAChR): < 5.00
- Ratio nAChR subtype IC50/α6/α3β2β3 IC50, α4β4 (α4β4 nAChR): >62,500
- pIC50 (α6/α3β2 nAChR): 9.81
- Ratio nAChR subtype IC50/α6/α3β2β3 IC50, α6/α3β2 (α6/α3β2 nAChR): 0.962
- pIC50 (Rat α6/α3β2β3 nAChR): 9.80
- Ratio nAChR subtype IC50/α6/α3β2β3 IC50, α6/α3β2β3 (Rat α6/α3β2β3 nAChR): 1.00
- pIC50 (Rat α3β2 nAChR): 8.06
- Ratio IC50 α3β2/IC50 α6/α3β2β3 (Rat α3β2 nAChR): 54.5
- pIC50 (rat α3β4 nAChR): 5.68
- Ratio nAChR subtype IC50/α6/α3β2β3 IC50, α3β4 (rat α3β4 nAChR): 13,100
- pIC50 (α7 nAChR): 5.98
- Ratio nAChR subtype IC50/α6/α3β2β3 IC50, α7 (α7 nAChR): 6,570

Structure (SMILES): CC(C)C[C@@H]1NC(=O)[C@H](C)NC(=O)[C@@H]2CSSC[C@H](NC(=O)CN)C(=O)N[C@@H](CSSC[C@@H](C(N)=O)NC(=O)[C@H](C)NC(=O)[C@H](CC(N)=O)NC(=O)[C@H](CO)NC(=O)[C@H](Cc3c[nH]cn3)NC(=O)[C@H](CCC(=O)O)NC1=O)C(=O)N[C@@H](CO)C(=O)N[C@@H](CC(N)=O)C(=O)N1CCC[C@H]1C(=O)N[C@@H](C(C)C)C(=O)N2 [MII[H9A; L15A]] (H-GCCSNPVCALEHSNAC-NH2; disulfide 2-8, 3-16)
- pKi [1]: 8.48
- ACh response, percentage of control, Rα2β2 (α2β2 nAChR): 102 ± 1.4 % of control and 103 ± 1.9 % of control
- activity at α2β2 (in words) (α2β2 nAChR): low or no activity; also recorded: little or no activity
- ACh response, percentage of control, Rα2β4 (α2β4 nAChR): 96.7 ± 3.2 % of control and 95.9 ± 2.3 % of control
- activity at α2β4 (in words) (α2β4 nAChR): low or no activity; also recorded: little or no activity
- ACh response, percentage of control, Rα4β4 (α4β4 nAChR): 99.0 ± 4.0 % of control and 100 ± 5.6 % of control
- activity at α4β4 (in words) (α4β4 nAChR): low or no activity; also recorded: little or no activity
- Hill slope (nH), α6β4 (rat α6β4 nAChR): 0.60±0.09
- Hill slope, α3β2 (Rat α3β2 nAChR): 0.48±0.04
- Hill slope (nH), α3β4 (rat α3β4 nAChR): 0.75±0.1
- activity at α3β4 (in words) (rat α3β4 nAChR): low or no activity; also recorded: little or no activity
- ACh response, percentage of control, Rα7 (α7 nAChR): 61.4 ± 2.3 % of control and 100 ± 1.5 % of control
- activity at α7 (in words) (α7 nAChR): low or no activity; also recorded: little or no activity
- ACh response, percentage of control, Rα4β2 (α4β2 nAChR): 98.5 ± 4.4 % of control and 101 ± 2.5 % of control
- activity at α4β2 (in words) (α4β2 nAChR): low or no activity; also recorded: little or no activity

Source: patent publication US7387997B2 (University of Utah, priority 2004, dated 2008)
